Measurements from PubChem BioAssay (NCI).
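Exposure lasted 48 hours, with cells grown in 96-well plates and compounds tested at five concentrations. The concentration for 50% growth inhibition is given as GI50. At the TGI there is no net growth.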

How the values were obtained:
Test in all cases: NCI tumour cell line growth inhibition, 48 h
786-0 renal = tested on: 786-0 renal
A498 renal = tested on: A498 renal
A549 NSCLC = tested on: A549 NSCLC
ACHN renal = tested on: ACHN renal
BT-549 breast = tested on: BT-549 breast
CAKI-1 renal = tested on: CAKI-1 renal
CCRF-CEM leukemia = tested on: CCRF-CEM leukemia
COLO 205 colon = tested on: COLO 205 colon
DU-145 prostate = tested on: DU-145 prostate
EKVX NSCLC = tested on: EKVX NSCLC
HCC-2998 colon = tested on: HCC-2998 colon
HCT-116 colon = tested on: HCT-116 colon
HCT-15 colon = tested on: HCT-15 colon
HL-60(TB) leukemia = tested on: HL-60(TB) leukemia
HOP-62 NSCLC = tested on: HOP-62 NSCLC
HOP-92 NSCLC = tested on: HOP-92 NSCLC
HS 578T breast = tested on: HS 578T breast
HT29 colon = tested on: HT29 colon
IGROV1 ovarian = tested on: IGROV1 ovarian
K-562 leukemia = tested on: K-562 leukemia
KM12 colon = tested on: KM12 colon
LOX IMVI melanoma = tested on: LOX IMVI melanoma
M14 melanoma = tested on: M14 melanoma
MALME-3M melanoma = tested on: MALME-3M melanoma
MCF7 breast = tested on: MCF7 breast
MDA-MB-231 breast = tested on: MDA-MB-231 breast
MDA-MB-435 = tested on: MDA-MB-435
MDA-MB-468 breast = tested on: MDA-MB-468 breast
MOLT-4 leukemia = tested on: MOLT-4 leukemia
NCI-H226 lung = tested on: NCI-H226 lung

For Cc1ccc(-c2nc(C#N)c(S(=O)(=O)N3CCN(S(=O)(=O)c4ccccc4)CC3)o2)cc1, which GI50 (786-0 renal) is on record?
Its GI50 is > 100 µM.

What about the TGI (786-0 renal) of the same molecule?
Its TGI is > 100 µM.

What about the GI50 (A498 renal) of the same molecule?
Its GI50 is > 100 µM.

What about the TGI (A498 renal) of the same molecule?
The TGI was > 100 µM.

And the GI50 (A549 NSCLC)?
Its GI50 is > 100 µM.

What about the TGI (A549 NSCLC) of the same molecule?
The TGI was > 100 µM.

What about the GI50 (ACHN renal) of the same molecule?
Its GI50 is > 100 µM.

And the TGI (ACHN renal)?
The TGI was > 100 µM.

And the GI50 (BT-549 breast)?
The GI50 was > 100 µM.

And the TGI (BT-549 breast)?
The TGI was > 100 µM.

And the GI50 (CAKI-1 renal)?
The GI50 was > 100 µM.

And the TGI (CAKI-1 renal)?
Its TGI is > 100 µM.

What about the GI50 (CCRF-CEM leukemia) of the same molecule?
The GI50 was > 100 µM.

And the TGI (CCRF-CEM leukemia)?
The TGI was > 100 µM.

And the GI50 (COLO 205 colon)?
The GI50 was > 100 µM.

What about the TGI (COLO 205 colon) of the same molecule?
The TGI was > 100 µM.

And the GI50 (DU-145 prostate)?
Its GI50 is > 100 µM.

What about the TGI (DU-145 prostate) of the same molecule?
The TGI was > 100 µM.

What about the GI50 (EKVX NSCLC) of the same molecule?
Its GI50 is > 100 µM.

And the TGI (EKVX NSCLC)?
Its TGI is > 100 µM.

What about the GI50 (HCC-2998 colon) of the same molecule?
The GI50 was > 100 µM.

What about the TGI (HCC-2998 colon) of the same molecule?
Its TGI is > 100 µM.

And the GI50 (HCT-116 colon)?
Its GI50 is > 100 µM.

And the TGI (HCT-116 colon)?
The TGI was > 100 µM.

And the GI50 (HCT-15 colon)?
Its GI50 is > 100 µM.

And the TGI (HCT-15 colon)?
Its TGI is > 100 µM.

What about the GI50 (HL-60(TB) leukemia) of the same molecule?
Its GI50 is > 100 µM.

And the TGI (HL-60(TB) leukemia)?
The TGI was > 100 µM.

What about the GI50 (HOP-62 NSCLC) of the same molecule?
Its GI50 is > 100 µM.

And the TGI (HOP-62 NSCLC)?
The TGI was > 100 µM.

And the GI50 (HOP-92 NSCLC)?
The GI50 was > 100 µM.

What about the TGI (HOP-92 NSCLC) of the same molecule?
Its TGI is > 100 µM.

What about the GI50 (HS 578T breast) of the same molecule?
The GI50 was > 100 µM.

And the TGI (HS 578T breast)?
The TGI was > 100 µM.

And the GI50 (HT29 colon)?
Its GI50 is > 100 µM.

What about the TGI (HT29 colon) of the same molecule?
Its TGI is > 100 µM.

What about the GI50 (IGROV1 ovarian) of the same molecule?
Its GI50 is > 100 µM.

And the TGI (IGROV1 ovarian)?
The TGI was > 100 µM.

And the GI50 (K-562 leukemia)?
The GI50 was > 100 µM.

And the TGI (K-562 leukemia)?
The TGI was > 100 µM.

What about the GI50 (KM12 colon) of the same molecule?
The GI50 was > 100 µM.

What about the TGI (KM12 colon) of the same molecule?
Its TGI is > 100 µM.

And the GI50 (LOX IMVI melanoma)?
The GI50 was > 100 µM.

What about the TGI (LOX IMVI melanoma) of the same molecule?
Its TGI is > 100 µM.

What about the GI50 (M14 melanoma) of the same molecule?
Its GI50 is > 100 µM.

What about the TGI (M14 melanoma) of the same molecule?
The TGI was > 100 µM.

And the GI50 (MALME-3M melanoma)?
The GI50 was > 100 µM.

What about the TGI (MALME-3M melanoma) of the same molecule?
The TGI was > 100 µM.

What about the GI50 (MCF7 breast) of the same molecule?
Its GI50 is > 100 µM.

And the TGI (MCF7 breast)?
The TGI was > 100 µM.

What about the GI50 (MDA-MB-231 breast) of the same molecule?
Its GI50 is > 100 µM.

What about the TGI (MDA-MB-231 breast) of the same molecule?
Its TGI is > 100 µM.

What about the GI50 (MDA-MB-435) of the same molecule?
The GI50 was > 100 µM.

What about the TGI (MDA-MB-435) of the same molecule?
The TGI was > 100 µM.

What about the GI50 (MDA-MB-468 breast) of the same molecule?
Its GI50 is > 100 µM.

What about the TGI (MDA-MB-468 breast) of the same molecule?
Its TGI is > 100 µM.

And the GI50 (MOLT-4 leukemia)?
Its GI50 is > 100 µM.

What about the TGI (MOLT-4 leukemia) of the same molecule?
Its TGI is > 100 µM.

And the GI50 (NCI-H226 lung)?
Its GI50 is > 100 µM.
